From patent US10501445B2, “Quinoxalinones and dihydroquinoxalinones as respiratory syncytial virus antiviral agents” (JANSSEN SCIENCES IRELAND UC, priority 2013, dated 2019) come the findings set out here.

pEC50: −log10 of the molar value.

One series relates to rgRSV224 virus. The experiment in a line: Antiviral activity: rgRSV224 (GFP-expressing RSV) replication in HeLa cells, GFP expression readout. In kind it is cell-based. The settings on record: human respiratory syncytial virus, 72 h, read-out: WT activity EC50. How it is done: (§1) Black 96-well clear-bottom microtiter plates (Corning, Amsterdam, The Netherlands) were filled in duplicate using a customized robot system with serial 4-fold dilutions of compound in a final volume of 50 μl culture medium [RPMI medium without phenol red, 10% FBS, 0.04% gentamycin (50 mg/ml) and 0.5% DMSO]. Then, 100 μl of a HeLa cell suspension (5×10^4 cells/ml) in culture medium was added to each well followed by the addition of 50 μl rgRSV224 (MOI=0.02) virus in culture medium using a multidrop dispenser (Thermo Scientific, Erembodegem, Belgium). rgRSV224 virus is an engineered virus that includes an additional GFP gene (Hallak et al, 2000) and was in-licensed from the NIH (Bethesda, Md., USA). Medium, virus- and mock-infected controls were included in each test. Cells were incubated at 37° C. in a 5% CO2 atmosphere. Three days post-virus exposure, viral replication was quantified by measuring GFP expression in the cells by a MSM laser microscope (Tibotec, Beerse, Belgium). The EC50 was defined as the 50% inhibitory concentration for GFP expression. In parallel, compounds were incubated for three days in a set of white 96-well microtitier plates (Corning) and the cytotoxicity of compounds in HeLa cells was determined by measuring the ATP content of the cells using the ATPlite kit (PerkinElmer, Zaventem, Belgium) according to the manufacturer's instructions. The CC50 was defined as the 50% concentration for cytotoxicity.

A further series in a line: in vitro. In kind it is cell-based. The settings on record: human. How it is done:
as §1

On to `O=c1cnc2ccc(Br)cc2n1Cc1nc2cc(F)ccc2n1CCCCF` [Compound P1, 7-bromo-1-{[5-fluoro-1-(4-fluorobutyl)-1H-benzimidazol-2-yl]methyl}quinoxalin-2(1H)-one], for which, in the series with rgRSV224 virus, the negative logarithm of the EC50 (pEC50) was 7.15. The compound further came in with a CC50 at 3 days in the series “in vitro” of 87 µM.

Regarding `O=c1cnc2ccc(-c3ccc(CCN4CCOCC4)cc3)cc2n1Cc1nc2cc(F)ccc2n1CCCCF` [Compound P2, 1-((5-fluoro-1-(4-fluorobutyl)-1H-benzo[d]imidazol-2-yl)methyl)-7-(4-(2-morpholinoethyl)phenyl)quinoxalin-2(1H)-one], the pEC50 in the series on rgRSV224 virus is less than 5.00. Further, the CC50 at 3 days in the series “in vitro” was 94 µM.

Turning to `O=c1cnc2ccc(-c3ccc(C(F)(F)F)cc3)cc2n1Cc1nc2cc(F)ccc2n1CCCCF` [Compound P3, 1-((5-fluoro-1-(4-fluorobutyl)-1H-benzo[d]imidazol-2-yl)methyl)-7-(4-(trifluoromethyl)phenyl)quinoxalin-2(1H)-one], the pEC50 in the series with rgRSV224 virus was less than 5.00. Also, the CC50 at 3 days in “in vitro” is 42.4 µM.

Consider `Cc1nc(C)c(-c2ccc3ncc(=O)n(Cc4nc5cc(F)ccc5n4CCCCF)c3c2)s1` [Compound P4, 7-(2,4-dimethylthiazol-5-yl)-1-((5-fluoro-1-(4-fluorobutyl)-1H-benzo[d]imidazol-2-yl)methyl)quinoxalin-2(1H)-one], for which the pEC50 in the series on rgRSV224 virus was 5.32. The same compound yielded a CC50 at 3 days in the series “in vitro” of 31.1 µM.

As for `Cn1nc(C(F)(F)F)cc1-c1ccc2ncc(=O)n(Cc3nc4cc(F)ccc4n3CCCCF)c2c1` [Compound P5, 1-((5-fluoro-1-(4-fluorobutyl)-1H-benzo[d]imidazol-2-yl)methyl)-7-(1-methyl-3-(trifluoromethyl)-1H-pyrazol-5-yl)quinoxalin-2(1H)-one], the pEC50 with rgRSV224 virus was 5.31. Also, the 50% cytotoxic concentration (CC50) at 3 days in “in vitro” is 53.3 µM.

On to `O=c1cnc2ccc(-c3ccccc3)cc2n1Cc1nc2cc(F)ccc2n1CCCCF` [Compound P6, 1-((5-fluoro-1-(4-fluorobutyl)-1H-benzo[d]imidazol-2-yl)methyl)-7-phenylquinoxalin-2(1H)-one], for which, in the series on rgRSV224 virus, the pEC50 is 5.40. Further, the CC50 at 3 days in “in vitro” was determined as 42.8 µM.

For the compound `CN(C)Cc1cccc(-c2ccc3ncc(=O)n(Cc4nc5cc(F)ccc5n4CCCCF)c3c2)c1` [Compound P7, 7-(3-((dimethylamino)methyl)phenyl)-1-((5-fluoro-1-(4-fluorobutyl)-1H-benzo[d]imidazol-2-yl)methyl)quinoxalin-2(1H)-one], in the series on rgRSV224 virus, the pEC50 was 7.00. This compound also displayed a CC50 at 3 days in the series “in vitro” of 17.6 µM.

Regarding `O=c1cnc2ccc(-c3ccncc3)cc2n1Cc1nc2cc(F)ccc2n1CCCCF` [Compound P8, 1-((5-fluoro-1-(4-fluorobutyl)-1H-benzo[d]imidazol-2-yl)methyl)-7-(pyridin-4-yl)quinoxalin-2(1H)-one], the pEC50 in the series with rgRSV224 virus was 5.57. Moreover, in the series “in vitro”, half-maximal cytotoxicity (CC50 at 3 days) was put at 86.8 µM.

With `O=c1cnc2ccc(F)cc2n1Cc1nc2cc(F)ccc2n1CCCCF` [Compound P9, 7-fluoro-1-((5-fluoro-1-(4-fluorobutyl)-1H-benzo[d]imidazol-2-yl)methyl)quinoxalin-2(1H)-one], the pEC50 in the series with rgRSV224 virus was 6.57. Also, in the series “in vitro”, the CC50 at 3 days is more than 100 µM.

As for `O=c1cnc2cc(F)ccc2n1Cc1nc2cc(F)ccc2n1CCCCF` [Compound P10, 6-fluoro-1-((5-fluoro-1-(4-fluorobutyl)-1H-benzo[d]imidazol-2-yl)methyl)quinoxalin-2(1H)-one], the pEC50 with rgRSV224 virus was 5.98. This compound yielded a 50% cytotoxic concentration (CC50) at 3 days in “in vitro” of more than 100 µM.

As for `O=c1cnc2cnccc2n1Cc1nc2cc(F)ccc2n1CCCCF` [Compound P11, 1-((5-fluoro-1-(4-fluorobutyl)-1H-benzo[d]imidazol-2-yl)methyl)pyrido[3,4-b]pyrazin-2(1H)-one], the negative logarithm of the EC50 (pEC50) with rgRSV224 virus was 5.14. Besides, in “in vitro”, the CC50 at 3 days was more than 100 µM.

In the case of `O=C1CN(C2CC2)c2ccncc2N1Cc1nc2cc(F)ccc2n1CCCCF` [Compound P12, 1-cyclopropyl-4-((5-fluoro-1-(4-fluorobutyl)-1H-benzo[d]imidazol-2-yl)methyl)-1,2-dihydropyrido[3,4-b]pyrazin-3(4H)-one], the pEC50 with rgRSV224 virus was 7.96. For the same compound, half-maximal cytotoxicity in “in vitro” (CC50 at 3 days) was put at 50.1 µM.

`CC(C)CCn1c(Cn2c(=O)cnc3ccc(Br)cc32)nc2nc(Cl)ccc21` [Compound P13, 7-bromo-1-((5-chloro-1-isopentyl-1H-imidazo[4,5-b]pyridin-2-yl)methyl) quinoxalin-2(1H)-one]: in the series with rgRSV224 virus, the pEC50 was 8.40. Besides, it took 46.5 µM to reach half-maximal cytotoxicity in the series “in vitro” (CC50 at 3 days).

`CC(C)CCn1c(Cn2c(=O)cnc3ccc(-c4ccncc4)cc32)nc2nc(Cl)ccc21` [Compound P14, 1-((5-chloro-1-isopentyl-1H-imidazo[4,5-b]pyridin-2-yl)methyl)-7-(pyridin-4-yl)quinoxalin-2(1H)-one]: the pEC50 with rgRSV224 virus is 7.21. Besides, it took 14.7 µM to reach half-maximal cytotoxicity in “in vitro” (CC50 at 3 days).

As to `CC(C)CCn1c(Cn2c(=O)cnc3ccc(-c4ccsc4)cc32)nc2nc(Cl)ccc21` [Compound P15, 1-((5-chloro-1-isopentyl-1H-imidazo[4,5-b]pyridin-2-yl)methyl)-7-(thiophen-3-yl)-quinoxalin-2(1H)-one], in the series with rgRSV224 virus, the pEC50 was 6.47. In the series “in vitro”, the CC50 at 3 days was 27.6 µM.

As for `CC(C)CCn1c(Cn2c(=O)cnc3ccc(-c4cccn4C(=O)OC(C)(C)C)cc32)nc2nc(Cl)ccc21` [Compound P16, tert-butyl 2-(4-((5-chloro-1-isopentyl-1H-imidazo[4,5-b]pyridin-2-yl)methyl)-3-oxo-3,4-dihydroquinoxalin-6-yl)-1H-pyrrole-1-carboxylate], the pEC50 in the series on rgRSV224 virus was 6.29. Besides, the CC50 at 3 days in the series “in vitro” worked out at 42.5 µM.

Take `CC(C)CCn1c(Cn2c(=O)cnc3ccc(-c4cncnc4)cc32)nc2nc(Cl)ccc21` [Compound P17, 1-((5-chloro-1-isopentyl-1H-imidazo[4,5-b]pyridin-2-yl)methyl)-7-(pyrimidin-5-yl)quinoxalin-2(1H)-one]: the negative logarithm of the EC50 (pEC50) with rgRSV224 virus is 6.32. The same compound yielded a CC50 at 3 days in the series “in vitro” of more than 100 µM.

As to `CC(C)CCn1c(Cn2c(=O)cnc3ccc(-c4ccc(F)cc4)cc32)nc2nc(Cl)ccc21` [Compound P18, 1-((5-chloro-1-isopentyl-1H-imidazo[4,5-b]pyridin-2-yl)methyl)-7-(4-fluorophenyl)quinoxalin-2(1H)-one], in the series with rgRSV224 virus, the pEC50 is 5.48. Further, it took 51.5 µM to reach half-maximal cytotoxicity in the series “in vitro” (CC50 at 3 days).

For the compound `CC(C)CCn1c(Cn2c(=O)cnc3ccc(F)cc32)nc2nc(Cl)ccc21` [Compound P19, 1-((5-chloro-1-isopentyl-1H-imidazo[4,5-b]pyridin-2-yl)methyl)-7-fluoroquinoxalin-2(1H)-one], the pEC50 with rgRSV224 virus was 7.38. This compound also gave a CC50 at 3 days in the series “in vitro” of more than 100 µM.

For the compound `CC(C)CCn1c(Cn2c(=O)cnc3cc(F)ccc32)nc2nc(Cl)ccc21` [Compound P20, 1-((5-chloro-1-isopentyl-1H-imidazo[4,5-b]pyridin-2-yl)methyl)-6-fluoroquinoxalin-2(1H)-one], the pEC50 in the series with rgRSV224 virus was 7.49. For the same compound, the CC50 at 3 days in “in vitro” was more than 100 µM.

Consider `CC(C)CCn1c(Cn2c(=O)cnc3cnccc32)nc2nc(Cl)ccc21` [Compound P21, 1-((5-chloro-1-isopentyl-1H-imidazo[4,5-b]pyridin-2-yl)methyl)pyrido[4,3-b]pyrazin-2(1H)-one], for which, in the series with rgRSV224 virus, the pEC50 was less than 5.00. The CC50 at 3 days in the series “in vitro” is more than 100 µM.

In the case of `CC(C)CCn1c(CN2C(=O)CN(C3CC3)c3ccncc32)nc2nc(Cl)ccc21` [Compound P22, 4-((5-chloro-1-isopentyl-1H-imidazo[4,5-b]pyridin-2-yl)methyl)-1-cyclopropyl-1,2-dihydropyrido[3,4-b]pyrazin-3(4H)-one], the negative logarithm of the EC50 (pEC50) in the series with rgRSV224 virus is 6.92. This compound had a CC50 at 3 days in “in vitro” of 60.7 µM.

On to `CS(=O)(=O)CCCn1c(CN2C(=O)CN(C3CC3)c3ccncc32)nc2cc(Br)ccc21` [Compound P23, 4-((5-bromo-1-(3-(methylsulfonyl)propyl)-1H-benzo[d]imidazol-2-yl)methyl)-1-cyclopropyl-1,2-dihydropyrido[3,4-b]pyrazin-3(4H)-one], for which the pEC50 with rgRSV224 virus is 8.82. Also, in the series “in vitro”, the CC50 at 3 days was determined as 71.3 µM.

As for `CS(=O)(=O)CCCn1c(Cn2c(=O)cnc3ccc(F)cc32)nc2cc(Br)ccc21` [Compound P24, 1-((5-bromo-1-(3-(methylsulfonyl)propyl)-1H-benzo[d]imidazol-2-yl)methyl)-7-fluoroquinoxalin-2(1H)-one], the pEC50 with rgRSV224 virus was 8.40. In the series “in vitro”, this compound gave a CC50 at 3 days of 78.5 µM.

As for `CS(=O)(=O)CCCn1c(Cn2c(=O)cnc3cc(F)ccc32)nc2cc(Br)ccc21` [Compound P25, 1-((5-bromo-1-(3-(methylsulfonyl)propyl)-1H-benzo[d]imidazol-2-yl)methyl)-6-fluoroquinoxalin-2(1H)-one], the pEC50 in the series on rgRSV224 virus is 8.19. The same compound came in with a CC50 at 3 days in the series “in vitro” of 64 µM.

Consider `CS(=O)(=O)CCCn1c(CN2C(=O)CN(C3CC3)c3ccncc32)nc2cc(Cl)ccc21` [Compound P26, 4-((5-chloro-1-(3-(methylsulfonyl)propyl)-1H-benzo[d]imidazol-2-yl)-methyl)-1-cyclopropyl-1,2-dihydropyrido[3,4-b]pyrazin-3(4H)-one], for which the pEC50 in the series with rgRSV224 virus was 7.82. The CC50 at 3 days in “in vitro” was more than 100 µM.

As to `CS(=O)(=O)CCCn1c(Cn2c(=O)cnc3ccc(F)cc32)cc2cc(Br)ccc21` [Compound P28, 1-((5-bromo-1-(3-(methylsulfonyl)propyl)-1H-indol-2-yl)methyl)-7-fluoroquinoxalin-2(1H)-one], the pEC50 in the series on rgRSV224 virus is 7.74.
